Laboratory results reported in US20140336253A1, “COMPOSITION FOR TRANSDERMAL ADMINISTRATION OF RIVASTIGMINE” (priority 2011, published 2014).

Assay: Transdermal delivery and tolerability of Rivastigmine patches
Assay type: in vivo

SMILES: CCN(C)C(=O)Oc1cccc([C@H](C)N(C)C)c1 [Rivastigmine, (S)-{3-[α-(Dimethylamino)ethyl]phenyl}-N-ethyl-N-methylcarbamate]
- tolerability (dose of 36 mg free base in up to 80 cm^2 of patches): well tolerated
- amount absorbed (patches containing 36 mg Rivastigmine, up to 80 cm^2): 12 mg
